Data set [1] deals with lipid and others in blood (TC, TG, PL, NEFA in serum). The data set can be described thus: Decrease of lipid in blood by combination use of fenofibrate and pitavastatin in dog (serum TC, TG, PL, NEFA). In kind it is in vivo. The protocol:
Dogs [female and male beagles (YAKUKEN BEAGLE) (11 male dogs and 2 female dogs, 27 to 73 months old)] were used for the examination. Incidentally, each of the dogs was accommodated in a separate bracket cage in a breeding room under the following conditions: a room temperature of 23±3° C., a humidity of 50±10%, a light period of 8:00 to 20:00, and a dark period of 20:00 to 8:00. Moreover, the dog was given 300 g of CD-5M (manufactured by CLEA Japan, Inc.) as a food once a day. Incidentally, the dog was freely allowed to have tap water.
(§1) Four hours (Day0-4 hr) and 24 hours (Day0-24 hr) after feeding on the day before the administration start day, blood was collected from antebrachial radial veins, and serum and plasma containing sodium citrate (a citric sodium aqueous solution having a concentration of 3.8% by weight) were obtained. Then using the serum, the total cholesterol (TC), the triglyceride (TG), the phospholipid (PL), and the free fatty acid (NEFA) were quantitatively determined by a Toshiba automatic analyzer (manufactured by Toshiba Medical Systems Corporation, TBA-120FR). Moreover, using the sodium citrate-containing plasma, the amount of fibrinogen was quantitatively determined in accordance with the thrombin time method.
(§2) Incidentally, feeding was performed immediately after every administration.
(§3) Blood was collected after 4 hours of the seventh administration (Day7-4 hr). Using the same manner as in the case of the Day0-4 hr, serum and sodium citrate-containing plasma were obtained, and each of the examinations was performed.
Incidentally, the obtained value from each test was regarded as a significant difference when the difference value was less than 5%.
Incidentally, the relative index of each component was calculated based on the formula: (the average value of the concentration in the blood after the administration)/(the average value of the concentration in the blood before the administration).

Another data set deals with fibrinogen. The data set can be described thus: Amount of fibrinogen in sodium citrate-containing plasma of dogs, thrombin time method. In kind it is in vivo. The following applies: dog sodium citrate plasma, Day 7-4 hr minus Day0-4 hr; FEN 20 mg/kg and/or PIT 2 mg/kg orally once a day for 7 days; average ± standard error. The protocol: as §1, §2, §3
The quantitation results were shown as “an average value±a standard error”. […] Incidentally, the obtained value from each test was regarded as a significant difference when the difference value was less than 5%.

The conditions of data set [2]: pitavastatin 4 mg a day for 6 days vs combined with fenofibrate 160 mg a day or gemfibrozil 600 mg twice a day for 7 days; cited from earlier work.
[3] abbreviates: Day 7-4 hr minus Day0-4 hr, FEN 20 mg/kg and/or PIT 2 mg/kg orally once a day for 7 days, average ± standard error.
The mark [4] stands for this setting: Day 7-4 hr, FEN 20 mg/kg and/or PIT 2 mg/kg orally for 7 days.

Structures are written as SMILES.

`CC(C)OC(=O)C(C)(C)Oc1ccc(C(=O)c2ccc(Cl)cc2)cc1` [FEN, Fenofibrate]: in data set [1] (setting [3]), the ΔNEFA was −25 ± 20 μEq/L, the ΔPL is -71 ± 11 mg/dL and the ΔTG was -38.7 ± 16.3 mg/dL. The same molecule had a ΔFibrinogen with fibrinogen of 6 ± 22 mg/dL.

Take `O=C(O)C[C@H](O)C[C@H](O)/C=C/c1c(C2CC2)nc2ccccc2c1-c1ccc(F)cc1` [PIT, Pitavastatin]: in data set [1] (setting [3]), the ΔNEFA is given as −6 ± 102 μEq/L, the ΔPL is -61 ± 9 mg/dL, the ΔTC was -25.0 ± 3.6 mg/dL and the ΔTG was -11.5 ± 4.8 mg/dL. In data set [1] (setting [4]), the “Relative index of NEFA (average concentration after/before administration)” value worked out at 0.978, the “Relative index of PL (average concentration after/before administration)” value came out at 0.795, the “Relative index of TC (average concentration after/before administration)” value was determined as 0.797 and the “Relative index of TG (average concentration after/before administration)” value was found to be 0.791. This molecule also gave a ΔFibrinogen in the data set on fibrinogen of 11 ± 11 mg/dL. Further, the “Drug interactions (pharmacokinetic parameter, concentration of unchanged pitavastatin in the blood)” value in data set [2] is listed as “low degree of the drug interactions”.

The values above are taken from patent US20090318496A1, “PREPARATION CONTAINING FIBRATE AGENT AND PROCESS FOR PRODUCING THE SAME” (ASKA Pharmaceutical Co., Ltd., priority 2006, published 2009).
